Data on 28 compounds can be found in ChEMBL document CHEMBL1821714, “Discovery, synthesis and SAR of azinyl- and azolylbenzamides antagonists of the P2X₇ receptor” (Bioorg Med Chem Lett, 2011).

Data set [1] has as its target T1, P2X purinoceptor 7 (Homo sapiens, UniProt Q99572).
T1 sequence (Q99572 whole entry): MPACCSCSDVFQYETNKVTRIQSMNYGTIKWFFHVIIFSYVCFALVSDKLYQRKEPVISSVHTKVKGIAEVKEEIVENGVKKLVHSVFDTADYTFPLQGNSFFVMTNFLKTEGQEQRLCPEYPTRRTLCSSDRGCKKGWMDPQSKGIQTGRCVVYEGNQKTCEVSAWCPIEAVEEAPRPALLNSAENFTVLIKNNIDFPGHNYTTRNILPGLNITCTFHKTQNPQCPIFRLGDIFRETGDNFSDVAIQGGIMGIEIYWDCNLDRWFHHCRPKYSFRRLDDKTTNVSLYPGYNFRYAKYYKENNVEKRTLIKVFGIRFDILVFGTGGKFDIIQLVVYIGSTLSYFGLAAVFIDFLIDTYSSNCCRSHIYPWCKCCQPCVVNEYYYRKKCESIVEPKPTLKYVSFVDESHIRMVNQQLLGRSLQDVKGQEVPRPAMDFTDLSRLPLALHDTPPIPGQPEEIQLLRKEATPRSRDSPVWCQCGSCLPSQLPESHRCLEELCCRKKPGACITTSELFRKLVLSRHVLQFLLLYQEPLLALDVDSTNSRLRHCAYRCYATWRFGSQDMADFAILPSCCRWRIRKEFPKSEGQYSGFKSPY
The experiment in a line: Antagonist activity at P2X7R expressed in LPS-activated human monocytes assessed as inhibition of ATP-induced IL1-beta release in presence of low serum concentration. Format: functional, cell-based.

Data set [2] has as its target T1, P2X purinoceptor 7. The data set can be described thus: Antagonist activity at P2X7R expressed in HEK293 cells assessed as inhibition of ATP-induced YO-PRO-1 uptake. Format: functional, cell-based.
For data set [3], the target named is T1, P2X purinoceptor 7. The data set can be described thus: Antagonist activity at P2X7R expressed in LPS-stimulated human whole blood assessed as inhibition of ATP-induced IL1-beta release. Format: functional, tissue-based.
Data set [4] is described as follows: Half life in human liver microsomes. For orientation: Microsomes from liver hold many membrane-bound enzymes, among them those of drug oxidation.
A short description of data set [5]: Permeability from apical to basolateral side of human Caco2 cells. Format: ADME, cell-based. As to conditions: Caco-2, read-out: permeability. (Passage across Caco-2 layers is used to estimate intestinal permeability.)
Data set [6] has as its system MDCK. The data set can be described thus: Permeability from basolateral to apical side of dog MDCK cells expressing MDR1. Format: ADME, cell-based, Canis lupus familiaris.
In data set [7] the test system is MDCK. The data set can be described thus: Permeability from apical to basolateral side of dog MDCK cells expressing MDR1. The data set is classed as ADME, cell-based, Canis lupus familiaris.
The subject of data set [8] is MDCK. The experiment in a line: Ratio of permeability from basolateral to apical over apical to basolateral side in dog MDCK cells expressing MDR1. The data set is classed as ADME, cell-based, Canis lupus familiaris.
A short description of data set [9]: Lipophilicity, log P of the compound. The data set is classed as physicochemical. To be noted: octanol/water.
A short description of data set [10]: Distribution coefficient, log D of the compound. The data set is classed as physicochemical. To be noted: octanol/water.
Data set [11] concerns the target T2, P2X purinoceptor 7 (Homo sapiens) (UniProt Q99572).
T2 sequence (whole entry): T1 sequence (Q99572 whole entry)
The data set can be described thus: Antagonist activity at P2X7R expressed in LPS-activated human monocytes assessed as inhibition of ATP-induced IL1-beta release at 1 uM in presence of low serum concentration. Format: functional, cell-based.

A short description of data set [12]: Volume of distribution at steady state in iv dosed rat. As to conditions: in vivo.
Data set [13] in a line: Half life in iv dosed rat. To be noted: in vivo.
Data set [14] is described as follows: Oral bioavailability in rat. To be noted: in vivo.

pIC50: −log10 of the molar value.

In the case of `Cc1cc(-c2ccc(Cl)c(C(=O)NCC3(O)CCCCCC3)c2)nn1C[C@H](O)CN.Cl`, the pIC50 at P2X purinoceptor 7 [1] was 8.15; at P2X purinoceptor 7 [2] it was 8.52; on P2X purinoceptor 7 [3], 8.00. Moreover, the half-life in data set [4] (liver microsomes) is above 2 h. Moreover, the Papp A→B in data set [5] was determined as 10.5 ×10⁻⁶ cm/s. In addition, the figures for the permeability in the data set with MDCK [6] and in the data set on MDCK [7] were 2.2 ×10⁻⁶ cm/s and 0.26 ×10⁻⁶ cm/s, respectively. In addition, the Ratio in the data set on MDCK [8] stood at 10.5. For the same compound, the logP in [9] came to 2.6. In data set [10], the logD was 1.6.
As for `Cc1ccnc(-c2ccc(Cl)c(C(=O)NCCc3ccccc3Cl)c2)c1`, in [11], the inhibition was 0%.
In the case of `COC[C@H](O)Cn1c(=O)cnn(-c2ccc(Cl)c(C(=O)NCC3(O)CCCCCC3)c2)c1=O` [CE-224535], the pIC50 at P2X purinoceptor 7 [1] is 8.89.
Still for that read-out and setting: for `Cc1ccc(-c2ccc(Cl)c(C(=O)NCCc3ccccc3Cl)c2)nc1` the value was 6.96.
In the case of `Cc1cc(-c2ccc(Cl)c(C(=O)NCC3(O)CCCCCC3)c2)nn1C[C@@H](O)CN.Cl`, the pIC50 on P2X purinoceptor 7 [1] is 8.70; on P2X purinoceptor 7 [2], 9.30; at P2X purinoceptor 7 [3], 8.52. Besides, the half-life in data set [4] (liver microsomes) was above 2 h; in data set [13], 8.36 h. Further, the Papp A→B in [5] worked out at 2.98 ×10⁻⁶ cm/s. In addition, the permeability in the data set with MDCK [6] worked out at 2.39 ×10⁻⁶ cm/s; in the data set with MDCK [7], 0.26 ×10⁻⁶ cm/s. For the same compound, the Ratio in the data set on MDCK [8] is listed as 11.5. The Vd in data set [12] is 11.7 L/kg. In data set [14], the bioavailability was found to be 9%. The compound also had a logP in data set [9] of 2.6. In [10], the logD stood at 1.6.
As to `O=C(NCC1(O)CCCCCC1)c1cc(-c2ccc(=O)[nH]n2)ccc1Cl`, the pIC50 on P2X purinoceptor 7 [2] was 6.74.
Take `O=C(NCCc1ccccc1Cl)c1cc(-c2ccncc2)ccc1Cl`: the pIC50 at P2X purinoceptor 7 [1] is 5.28.
`CC(=O)c1ccc(-c2ccc(Cl)c(C(=O)NCCc3ccccc3Cl)c2)nc1`: in data set [11], the inhibition was 0%.
Still for that read-out and setting: for `Cc1cccc(-c2ccc(Cl)c(C(=O)NCCc3ccccc3Cl)c2)n1` the value was 0%.
As for `Cc1ccc(-c2ccc(Cl)c(C(=O)NCCc3ccccc3Cl)c2)nn1`, at P2X purinoceptor 7 [1], the pIC50 was 6.60.
As to `Cc1cccnc1-c1ccc(Cl)c(C(=O)NCCc2ccccc2Cl)c1`, the inhibition in data set [11] was determined as 0%.
For `Cn1ccc(-c2ccc(Cl)c(C(=O)NCC3(O)CCCCCC3)c2)n1`, the pIC50 on P2X purinoceptor 7 [1] was 6.62; on P2X purinoceptor 7 [3], 6.36. The same compound showed a half-life in data set [4] (liver microsomes) of 0.0617 h.
For `Cn1nccc1-c1ccc(Cl)c(C(=O)NCC2(O)CCCCCC2)c1`, the figures for the pIC50 on P2X purinoceptor 7 [1] and at P2X purinoceptor 7 [2] were below 6.00 and 6.58, respectively.
As for `O=C(NCCc1ccccc1Cl)c1cc(-c2ccccn2)ccc1Cl`, at P2X purinoceptor 7 [1], the pIC50 is 5.80.
For the compound `NC(=O)c1ccc(-c2ccc(Cl)c(C(=O)NCCc3ccccc3Cl)c2)nc1`, the pIC50 at P2X purinoceptor 7 [1] was 6.14.
Take `O=C(NCC1(O)CCCCCC1)c1cc(-c2cnoc2)ccc1Cl`: the pIC50 at P2X purinoceptor 7 [1] was 6.62. For the same compound, the half-life in data set [4] (microsomes) was 0.372 h.
Take `O=C(NCCc1ccccc1Cl)c1cc(-c2ccc(C(F)(F)F)cn2)ccc1Cl`: at P2X purinoceptor 7 [1], the pIC50 is 5.34.
Same read-out and setting: with `O=C(NCCc1ccccc1Cl)c1cc(-c2n[nH]c(=O)[nH]c2=O)ccc1Cl` the figure was 5.98; with `O=C(NCCc1ccccc1Cl)c1cc(-c2ccc(Cl)cn2)ccc1Cl`, 6.34.
Turning to `COc1ccc(-c2ccc(Cl)c(C(=O)NCC3(O)CCCCCC3)c2)nn1`, the negative logarithm of the IC50 (pIC50) on P2X purinoceptor 7 [2] was 7.55; at P2X purinoceptor 7 [3], 6.29. In data set [4] (liver microsomes), this compound gave a half-life of 1.28 h.
The matching figures for `O=C(NCC1(O)CCCCCC1)c1cc(-c2cc[nH]n2)ccc1Cl`: 7.92, 6.21 and 0.2 h.
Turning to `O=C(NCC1(O)CCCCCC1)c1cc(-c2c[nH]cn2)ccc1Cl`, the pIC50 on P2X purinoceptor 7 [1] was 6.29. The half-life in [4] (liver microsomes) is 1.42 h.
For the compound `CCCCC(CC)CNC(=O)c1cc(-n2ncc(=O)[nH]c2=O)ccc1Cl` (stereo not drawn), the pIC50 at P2X purinoceptor 7 [1] was 6.09.
Take `Cc1nc(-c2ccc(Cl)c(C(=O)NCC3(O)CCCCCC3)c2)cs1`: on P2X purinoceptor 7 [2], the pIC50 is 8.22.
For `N#Cc1ccc(-c2ccc(Cl)c(C(=O)NCCc3ccccc3Cl)c2)nc1`, in data set [11], the inhibition was determined as 0%.
As for `CC(O)c1ccc(-c2ccc(Cl)c(C(=O)NCCc3ccccc3Cl)c2)nc1` (stereo not drawn), on P2X purinoceptor 7 [1], the pIC50 is 6.18.
Still for that read-out and setting: for `O=C(NCCc1ccccc1Cl)c1cc(-c2cccnc2)ccc1Cl` the value was 5.32.
Same read-out and setting: with `COc1ccc(-c2ccc(Cl)c(C(=O)NCCc3ccccc3Cl)c2)nn1` the figure was 6.31.

Usually pIC50 stands for −log10 of the IC50, conventionally taken in molar units. Broadly, the half-life is the time in which the quantity being followed falls by half. Read a high half-life as slow decline. Broadly, the logP is a log measure of how a compound divides between an organic and an aqueous phase. In general, logD refers to the decadic logarithm of the distribution of all forms, ionised or not, between an organic phase and buffer at a given pH. Higher therefore signals a more lipophilic compound. By inhibition is commonly meant the drop in the measured response relative to a control, in per cent. The term Vd denotes the apparent volume that relates the amount in the body to the concentration in plasma or blood. The low end stands for confinement near the circulation, the high end for extensive tissue distribution. As usually defined, the bioavailability is dose-corrected exposure relative to a reference, in per cent. A low value points to poor availability.
